For one test, the target named is Acetylcholinesterase (Homo sapiens, UniProt P22303). The test can be described thus: Inhibition of AChE by Ellman's method. Background: Ellman's reagent forms a yellow product with free thiols.
The target of the next test is Cholinesterase (Homo sapiens, UniProt P06276).

The IC50 is the concentration that inhibits the measured activity by half.

Acetylcholinesterase, sequence (P22303 whole entry): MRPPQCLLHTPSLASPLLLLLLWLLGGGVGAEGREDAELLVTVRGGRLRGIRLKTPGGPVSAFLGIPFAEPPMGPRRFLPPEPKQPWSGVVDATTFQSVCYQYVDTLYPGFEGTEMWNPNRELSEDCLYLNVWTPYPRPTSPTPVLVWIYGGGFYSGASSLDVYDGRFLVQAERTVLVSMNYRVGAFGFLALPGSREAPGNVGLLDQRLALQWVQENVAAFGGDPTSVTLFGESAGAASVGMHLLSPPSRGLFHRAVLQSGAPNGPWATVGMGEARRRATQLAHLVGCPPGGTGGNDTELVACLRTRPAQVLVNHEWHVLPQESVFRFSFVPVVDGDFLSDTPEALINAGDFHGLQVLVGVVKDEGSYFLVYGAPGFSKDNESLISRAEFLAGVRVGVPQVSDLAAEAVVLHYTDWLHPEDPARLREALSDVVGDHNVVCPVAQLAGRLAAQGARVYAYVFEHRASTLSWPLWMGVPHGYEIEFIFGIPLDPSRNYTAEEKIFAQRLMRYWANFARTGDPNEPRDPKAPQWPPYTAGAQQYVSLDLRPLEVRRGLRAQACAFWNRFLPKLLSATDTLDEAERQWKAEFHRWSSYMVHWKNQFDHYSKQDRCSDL
Cholinesterase, sequence (P06276 whole entry): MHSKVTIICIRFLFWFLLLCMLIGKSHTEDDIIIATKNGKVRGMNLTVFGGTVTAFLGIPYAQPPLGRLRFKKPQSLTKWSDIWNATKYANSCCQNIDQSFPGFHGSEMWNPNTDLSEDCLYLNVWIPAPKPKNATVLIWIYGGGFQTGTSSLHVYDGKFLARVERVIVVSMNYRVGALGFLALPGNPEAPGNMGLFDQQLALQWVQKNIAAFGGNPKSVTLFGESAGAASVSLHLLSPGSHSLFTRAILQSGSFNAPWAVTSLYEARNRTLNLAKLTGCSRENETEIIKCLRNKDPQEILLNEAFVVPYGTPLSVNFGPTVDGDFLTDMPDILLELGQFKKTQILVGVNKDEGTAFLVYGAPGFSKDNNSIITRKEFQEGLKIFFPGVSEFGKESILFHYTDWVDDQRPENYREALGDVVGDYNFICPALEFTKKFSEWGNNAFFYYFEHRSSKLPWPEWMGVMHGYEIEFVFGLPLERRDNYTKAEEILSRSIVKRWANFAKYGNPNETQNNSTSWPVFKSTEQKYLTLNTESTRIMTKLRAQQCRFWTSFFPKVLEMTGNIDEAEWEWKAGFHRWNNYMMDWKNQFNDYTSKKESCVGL

Regarding `O=C(NCCNc1c2c(nc3ccccc13)CCCC2)c1ccc(F)cc1`, the IC50 on Acetylcholinesterase is 0.815 nM; on Cholinesterase it was 0.0449 nM.

In the case of `O=C(NCCCNc1c2c(nc3ccccc13)CCCC2)c1ccc(F)cc1`, the IC50 worked out at 0.809 nM on Acetylcholinesterase and 0.0212 nM against Cholinesterase.

On to `O=C(NCCCCNc1c2c(nc3ccccc13)CCCC2)c1ccc(F)cc1`, for which the figures for the IC50 against Acetylcholinesterase and on Cholinesterase were 0.784 nM and 0.0354 nM, respectively.

These data come from ChEMBL document CHEMBL1811888, “Synthesis, biological activity and HPLC validation of 1,2,3,4-tetrahydroacridine derivatives as acetylcholinesterase inhibitors” (Eur J Med Chem, 2011).
